Type in all cases: functional
The test system of experiment [1] is Escherichia coli. Briefly: Antibacterial activity against Escherichia coli 1285 harboring beta-lactamase CMY-33 gene by Etest method.
Experiment [2] relates to Escherichia coli. Briefly: Antibacterial activity against Escherichia coli YD006 harboring beta-lactamase CMY-33 gene by Etest method.
Experiment [3] deals with Escherichia coli. Put plainly: Antibacterial activity against Escherichia coli 34943 harboring beta-lactamase CMY-44 gene by Etest method.
Experiment [4] has as its system Escherichia coli. Briefly: Antibacterial activity against Escherichia coli DH10B harboring plasmid BCSK carrying beta-lactamase CMY-33 gene by Etest method. Particulars: K-12 DH10B.
The subject of experiment [5] is Escherichia coli. Put plainly: Antibacterial activity against Escherichia coli DH10B harboring plasmid BCSK carrying beta-lactamase CMY-44 gene by Etest method. The following applies: K-12 DH10B.
Experiment [6] has as its system Escherichia coli. Briefly: Antibacterial activity against Escherichia coli DH10B harboring plasmid BCSK carrying beta-lactamase CMY-2 gene by Etest method. The following applies: K-12 DH10B.
Experiment [7] relates to Escherichia coli. Put plainly: Antibacterial activity against Escherichia coli DH10B harboring plasmid BCSK by Etest method. Particulars: K-12 DH10B.

≈ marks a conversion by molar mass, not a printed value.

With `CO[C@@]1(NC(=O)Cc2cccs2)C(=O)N2C(C(=O)O)=C(COC(N)=O)CS[C@@H]21` [CEFOXITIN], the MIC (commonly the lowest concentration found to suppress growth) in the experiment on Escherichia coli [1] is more than 256 µg/mL; with Escherichia coli [2], 24 µg/mL (≈ 56.1 µM); against Escherichia coli [3], more than 256 µg/mL; against Escherichia coli [4], 24 µg/mL (≈ 56.1 µM); in the experiment on Escherichia coli [5], 32 µg/mL (≈ 74.9 µM); against Escherichia coli [6], more than 256 µg/mL. The MIC against Escherichia coli [7] amounted to 6 µg/mL (≈ 14 µM).

Consider `CO/N=C(\C(=O)N[C@@H]1C(=O)N2C(C(=O)O)=C(COC(N)=O)CS[C@H]12)c1ccco1` [CEFUROXIME], for which the minimum inhibitory concentration (MIC) was more than 256 µg/mL with Escherichia coli [1]; 96 µg/mL (≈ 226 µM) in the experiment with Escherichia coli [2]; more than 256 µg/mL with Escherichia coli [3]; 128 µg/mL (≈ 302 µM) with Escherichia coli [4]; 64 µg/mL (≈ 151 µM) against Escherichia coli [5]; more than 256 µg/mL in the experiment with Escherichia coli [6]. The same compound returned an MIC against Escherichia coli [7] of 6 µg/mL (≈ 14.1 µM).

`CO/N=C(\C(=O)N[C@@H]1C(=O)N2C(C(=O)[O-])=C(C[N+]3(C)CCCC3)CS[C@H]12)c1csc(N)n1` [CEFEPIME]: the MIC in the experiment on Escherichia coli [1] is 96 µg/mL (≈ 200 µM); in the experiment with Escherichia coli [2], 6 µg/mL (≈ 12.5 µM); in the experiment with Escherichia coli [3], 32 µg/mL (≈ 66.6 µM); in the experiment on Escherichia coli [4] it was 6 µg/mL (≈ 12.5 µM); in the experiment on Escherichia coli [5], 3 µg/mL (≈ 6.24 µM); with Escherichia coli [6], 0.25 µg/mL (≈ 0.52 µM). Further, in the experiment on Escherichia coli [7], the MIC stood at 0.032 µg/mL (≈ 0.0666 µM).

Consider `CC(C)(O/N=C(\C(=O)N[C@@H]1C(=O)N2C(C(=O)[O-])=C(C[n+]3ccccc3)CS[C@H]12)c1csc(N)n1)C(=O)O` [CEFTAZIDIME], for which the MIC against Escherichia coli [1], with Escherichia coli [2], against Escherichia coli [3], against Escherichia coli [4], against Escherichia coli [5] and with Escherichia coli [6] was more than 256 µg/mL throughout. Inhibition of growth in the experiment on Escherichia coli [7] (MIC) required 0.5 µg/mL (≈ 0.915 µM).

With `CCN1CCN(C(=O)N[C@@H](C(=O)N[C@@H]2C(=O)N3[C@@H]2SC(C)(C)[C@@H]3C(=O)O)c2ccccc2)C(=O)C1=O` [PIPERACILLIN], the MIC in the experiment with Escherichia coli [1] was more than 256 µg/mL; against Escherichia coli [2], 12 µg/mL (≈ 23.2 µM); in the experiment on Escherichia coli [3], more than 256 µg/mL; against Escherichia coli [4] it was 64 µg/mL (≈ 124 µM); with Escherichia coli [5], 32 µg/mL (≈ 61.8 µM); against Escherichia coli [6] it was 128 µg/mL (≈ 247 µM). The MIC in the experiment with Escherichia coli [7] worked out at 2 µg/mL (≈ 3.86 µM).

With `C[C@H]1[C@H](NC(=O)/C(=N\OC(C)(C)C(=O)O)c2csc(N)n2)C(=O)N1S(=O)(=O)O` [AZTREONAM], the MIC in the experiment on Escherichia coli [1] turned out to be 64 µg/mL (≈ 147 µM); in the experiment with Escherichia coli [2], 6 µg/mL (≈ 13.8 µM); in the experiment with Escherichia coli [3], 24 µg/mL (≈ 55.1 µM); against Escherichia coli [4] it was 16 µg/mL (≈ 36.7 µM); with Escherichia coli [5], 4 µg/mL (≈ 9.19 µM); in the experiment on Escherichia coli [6] it was 8 µg/mL (≈ 18.4 µM).

In the case of `CC1(C)S[C@@H]2[C@H](NC(=O)[C@H](N)c3ccccc3)C(=O)N2[C@H]1C(=O)O` [AMPICILLIN], the MIC was more than 256 µg/mL in the experiment with Escherichia coli [1]; 128 µg/mL (≈ 366 µM) in the experiment on Escherichia coli [2]; more than 256 µg/mL against Escherichia coli [3]; more than 256 µg/mL in the experiment with Escherichia coli [4]; more than 256 µg/mL in the experiment on Escherichia coli [5]; more than 256 µg/mL against Escherichia coli [6]. In the experiment with Escherichia coli [7], this compound returned an MIC of 3 µg/mL (≈ 8.59 µM).

With `C[C@@H](O)[C@H]1C(=O)N2C(C(=O)O)=C(S[C@@H]3CN[C@H](C(=O)Nc4cccc(C(=O)O)c4)C3)[C@H](C)[C@H]12` [ERTAPENEM], the MIC with Escherichia coli [1] was 1 µg/mL (≈ 2.1 µM); against Escherichia coli [2] it was 0.064 µg/mL (≈ 0.135 µM); in the experiment on Escherichia coli [3] it was 4 µg/mL (≈ 8.41 µM); in the experiment on Escherichia coli [4] it was 0.032 µg/mL (≈ 0.0673 µM); against Escherichia coli [5] it was 0.064 µg/mL (≈ 0.135 µM); with Escherichia coli [6], 0.094 µg/mL (≈ 0.198 µM). This compound showed an MIC against Escherichia coli [7] of 0.012 µg/mL (≈ 0.0252 µM).

For `CO/N=C(\C(=O)N[C@@H]1C(=O)N2C(C(=O)O)=C(COC(C)=O)CS[C@H]12)c1csc(N)n1` [CEFOTAXIME], the MIC in the experiment on Escherichia coli [1] was more than 256 µg/mL; in the experiment with Escherichia coli [2], 8 µg/mL (≈ 17.6 µM); in the experiment on Escherichia coli [3] it was 32 µg/mL (≈ 70.3 µM); in the experiment with Escherichia coli [4], 12 µg/mL (≈ 26.3 µM); against Escherichia coli [5], 8 µg/mL (≈ 17.6 µM); in the experiment with Escherichia coli [6] it was 16 µg/mL (≈ 35.1 µM). The same compound came in with an MIC against Escherichia coli [7] of 0.064 µg/mL (≈ 0.141 µM).

The record behind these values is ChEMBL document CHEMBL1649512, “Reduced susceptibility to cefepime among Escherichia coli clinical isolates producing novel variants of CMY-2 beta-lactamase” (2009).
